Data set [1] deals with T1, human mGluR3 (hmGluR3) (Homo sapiens, UniProt Q14832).
T1 construct: expressed in transfected cells; host or cells: HEK-293 cells, transient co-transfection by electroporation
Description: Human mGluR3 positive allosteric modulator evaluation using Ca++ functional assay. The class given is cell-based. The settings on record: hmGluR3 transiently over-expressed in HEK-293 cells; stimulated by EC50 glutamate concentration; intracellular Ca2+ (Fluo4AM, FLIPR Tetra). The essentials: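 Calcium flux (Fluo4, ex 485/em 525 nm) recorded first 10 min with compound alone, then 3 min after an EC50 glutamate challenge, giving agonist and PAM EC50 from 20-concentration sigmoidal fits. Receptor was transiently co-transfected in HEK-293 with chimeric G protein and glutamate transporters.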

Bounds are passed on as bounds.

T1 sequence (Q14832 23-879): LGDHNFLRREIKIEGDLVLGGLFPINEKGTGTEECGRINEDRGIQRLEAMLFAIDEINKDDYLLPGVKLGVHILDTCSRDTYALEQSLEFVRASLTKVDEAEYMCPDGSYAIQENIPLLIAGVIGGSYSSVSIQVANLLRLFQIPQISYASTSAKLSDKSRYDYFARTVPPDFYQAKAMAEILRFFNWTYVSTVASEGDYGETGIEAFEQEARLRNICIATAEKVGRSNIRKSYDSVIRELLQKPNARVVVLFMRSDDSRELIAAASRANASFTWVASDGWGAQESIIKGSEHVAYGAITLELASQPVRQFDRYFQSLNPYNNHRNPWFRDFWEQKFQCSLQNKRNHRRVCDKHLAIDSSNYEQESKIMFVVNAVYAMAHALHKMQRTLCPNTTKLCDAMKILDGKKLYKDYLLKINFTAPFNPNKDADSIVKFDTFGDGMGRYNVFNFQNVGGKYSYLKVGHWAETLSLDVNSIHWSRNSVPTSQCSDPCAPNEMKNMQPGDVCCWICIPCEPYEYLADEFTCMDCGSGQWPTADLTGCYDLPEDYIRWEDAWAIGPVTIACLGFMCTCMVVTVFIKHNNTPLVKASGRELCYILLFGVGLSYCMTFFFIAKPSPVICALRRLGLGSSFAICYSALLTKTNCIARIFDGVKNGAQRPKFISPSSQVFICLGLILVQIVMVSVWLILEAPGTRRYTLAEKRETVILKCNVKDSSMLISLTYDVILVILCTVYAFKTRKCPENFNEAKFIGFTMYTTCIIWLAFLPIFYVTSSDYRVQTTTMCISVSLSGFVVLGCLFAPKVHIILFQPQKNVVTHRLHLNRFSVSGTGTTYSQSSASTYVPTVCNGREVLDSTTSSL

Broadly, the melting point is the temperature, or range, at which the solid turns liquid. The term EC50 denotes the concentration at which the effect is half-maximal. `CN1C(=O)c2cc(-c3ccccc3)cn2-c2cc(-c3cccnc3C(F)(F)F)ccc2C12CC2` [Example 100, 5-Methyl-2-phenyl-9-(2-trifluoromethyl-pyridin-3-yl)-spiro[benzo[f]pyrrolo[1,2-a][1,4]diazepine-6,1′-cyclopropan]-4(5H)-one]: the melting point lay in the range of 199 to 204 °C. In data set [1], the 50% effective concentration (EC50) is more than 1000 nM.

As to `CN1C(=O)c2cccn2-c2cc(-c3ccc(C(F)(F)F)nc3)ccc2C12CC2` [Example 60, 5-Methyl-9-(6-trifluoromethylpyridin-3-yl)-spiro[benzo[f]pyrrolo[1,2-a][1,4]diazepine-6,1′-cyclopropan]-4(5H)-one], the melting point fell in the range of 88 to 97 °C. Besides, the EC50 in data set [1] lay within 100 to 1000 nM.

In turn, `CN1C(=O)c2cc(-c3ncc[nH]3)cn2-c2cc(-c3ccc(F)nc3)ccc2C12CC2` [Example 186] registered a melting point of more than 250 °C. Besides, the concentration giving a half-maximal response (EC50) in data set [1] is less than 100 nM.

On to `Cc1ccc2c(c1)C1(CC1)N(C)C(=O)c1cccn1-2` [Example 87, 5,8-Dimethyl-spiro[benzo[f]pyrrolo[1,2-a][1,4]diazepine-6,1′-cyclopropan]-4(5H)-one], for which the melting point was 143 to 150 °C. This compound also came in with an EC50 in data set [1] of more than 1000 nM.

In turn, `CN1C(=O)c2cc(-c3ccccc3)nn2-c2cc(-c3cccc(C#N)c3)ccc2C12CC2` [Example 129, 9-(3-Cyano-phenyl)-5-methyl-2-phenyl-spiro[benzo[f]pyrazolo[1,5-a][1,4]diazepine-6,1′-cyclopropan]-4(5H)-one] registered a melting point of 185 to 190 °C. Further, in data set [1], the EC50 is 100 to 1000 nM.

Consider `CN1C(=O)c2cc(-c3ccccc3)cn2-c2cc(-c3cccc(S(=O)(=O)N(C)C)c3)ccc2C12CC2` [Example 141, N,N-dimethyl-3-(5-methyl-4-oxo-2-phenyl-4,5-dihydrospiro[benzo[f]pyrrolo[1,2-a][1,4]diazepine-6,1′-cyclopropan]-9-yl)benzenesulfonamide], for which the melting point is 198 to 205 °C. Moreover, in data set [1], the EC50 was 100 to 1000 nM.

`CN1C(=O)c2cccn2-c2cc(-c3cccnc3C(C)(C)O)ccc2C12CC2` [Example 72, 5-Methyl-9-(2-(1-hydroxy-1-methyl-ethyl)-pyridin-3-yl)-spiro[benzo[f]pyrrolo[1,2-a][1,4]diazepine-6,1′-cyclopropan]-4(5H)-one] returned a melting point of 220 to 228 °C. This compound gave an EC50 in data set [1] of more than 1000 nM.

Compound `CN1C(=O)c2cc(-c3ccccc3)nn2-c2cc(C#N)ccc2C12CC2` [Example 137, 9-Cyano-5-methyl-2-phenyl-spiro[benzo[f]pyrazolo[1,5-a][1,4]diazepine-6,1′-cyclopropan]-4(5H)-one] gave a melting point of 196 to 200 °C. For the same compound, the EC50 in data set [1] was more than 1000 nM.

In turn, `CN1C(=O)c2cccn2-c2cc(-c3cc[nH]c(=O)c3)ccc2C12CC2` [Example 68, 5-Methyl-9-(2-hydroxypyridin-4-yl)-spiro[benzo[f]pyrrolo[1,2-a][1,4]diazepine-6,1′-cyclopropan]-4(5H)-one] returned a melting point of 183 to 197 °C. In data set [1], this compound registered an EC50 of more than 1000 nM.

As for `CN1C(=O)c2cc(-c3ccccc3)nn2-c2cc(-c3cccc(S(=O)(=O)N(C)C)c3)ccc2C12CC2` [Example 142, N,N-dimethyl-3-(5-methyl-4-oxo-2-phenyl-4,5-dihydrospiro[benzo[f]pyrazolo[1,5-a][1,4]diazepine-6,1′-cyclopropan]-9-yl)benzenesulfonamide], the melting point lay within 182 to 189 °C. Besides, in data set [1], the EC50 is 100 to 1000 nM.

`COc1ccc(-c2ccc3c(c2)-n2cccc2C(=O)N(C)C32CC2)cc1OC` [Example 39, 5-Methyl-9-(3,4-dimethoxy-phenyl)-spiro[benzo[f]pyrrolo[1,2-a][1,4]diazepine-6,1′-cyclopropan]-4(5H)-one]: the melting point lay in the range of 150 to 154 °C. In data set [1], this compound returned a concentration for a half-maximal effect (EC50) of 100 to 1000 nM.

`CN1C(=O)c2cccn2-c2cc(-c3cccc(C#N)c3)ccc2C12CC2` [Example 44, 5-Methyl-9-(3-cyanophenyl)-spiro[benzo[f]pyrrolo[1,2-a][1,4]diazepine-6,1′-cyclopropan]-4(5H)-one] came in with a melting point of 189 to 194 °C. Further, the EC50 in data set [1] was less than 100 nM.

`CN1C(=O)c2cc(-c3nnco3)cn2-c2cc(-c3ccc(F)nc3)ccc2C12CC2` [Example 187]: the melting point is 160 to 175 °C. In data set [1], the half-maximal effective concentration (EC50) is less than 100 nM.

`Cc1ncsc1-c1ccc2c(c1)-n1cccc1C(=O)N(C)C21CC1` [Example 50, 5-Methyl-9-(4-methylthiazol-5-yl)-spiro[benzo[f]pyrrolo[1,2-a][1,4]diazepine-6,1′-cyclopropan]-4(5H)-one] came in with a melting point of 205 to 212 °C. In data set [1], this compound registered a 50% effective concentration (EC50) of 100 to 1000 nM.

`COc1ccc(-c2ccc3c(c2)-n2nc(-c4ccccc4)cc2C(=O)N(C)C32CC2)cc1` [Example 128, 9-(4-Methoxy-phenyl)-5-methyl-2-phenyl-spiro[benzo[f]pyrazolo[1,5-a][1,4]diazepine-6,1′-cyclopropan]-4(5H)-one]: the melting point is more than 250 °C. Besides, the 50% effective concentration (EC50) in data set [1] lay in the range of 100 to 1000 nM.

Consider `CN1C(=O)c2ccc(-c3ccnn3C)n2-c2cc(-c3ccc(F)cn3)ccc2C12CC2` [Example 86, 5-Methyl-1-(2-methyl-2H-pyrazol-3-yl)9-(5-fluoropyridin-2-yl)-spiro[benzo[f]pyrrolo[1,2-a][1,4]diazepine-6,1′-cyclopropan]-4(5H)-one], for which the melting point lay in the range of 143 to 166 °C. In addition, the EC50 in data set [1] is more than 1000 nM.

The compound `CN1C(=O)c2cc(-c3nnco3)cn2-c2cc(-c3cccc(C#N)c3)ccc2C12CC2` [Example 192] had a melting point of more than 250 °C. For the same compound, in data set [1], the EC50 was less than 100 nM.

For `CN1C(=O)c2cc(-c3ccccc3)nn2-c2cc(-c3cn[nH]c3)ccc2C12CC2` [Example 134, 9-(1H-pyrazol-4-yl)-5-methyl-2-phenyl-spiro[benzo[f]pyrazolo[1,5-a][1,4]diazepine-6,1′-cyclopropan]-4(5H)-one], the melting point fell in the range of 199 to 208 °C. Besides, in data set [1], the EC50 fell in the range of 100 to 1000 nM.

On to `CN1C(=O)c2cccn2-c2cc(CCC#N)ccc2C12CC2` [Example 53, 5-Methyl-9-propionitrile-spiro[benzo[f]pyrrolo[1,2-a][1,4]diazepine-6,1′-cyclopropan]-4(5H)-one], for which the melting point fell in the range of 59 to 64 °C. Moreover, the EC50 in data set [1] is more than 1000 nM.

Compound `Cc1cccc2c1C1(CC1)N(C)C(=O)c1cccn1-2` [Example 89, 5,7-Dimethyl-spiro[benzo[f]pyrrolo[1,2-a][1,4]diazepine-6,1′-cyclopropan]-4(5H)-one] returned a melting point of 126 to 134 °C. The compound further displayed an EC50 in data set [1] of more than 1000 nM.

On to `Cc1ncccc1-c1ccc2c(c1)-n1cc(C(=O)O)cc1C(=O)N(C)C21CC1` [Example 176, 5-Methyl-9-(2-methylpyridin-3-yl)-4-oxo-4,5-dihydrospiro[benzo[f]pyrrolo[1,2-a][1,4]diazepine-6,1′-cyclopropane]-2-carboxylic acid], for which the melting point was more than 250 °C. In data set [1], this compound returned an EC50 of 100 to 1000 nM.

With `CN1C(=O)c2cccn2-c2cc(-c3cnn(C)c3)ccc2C12CC2` [Example 29, 5-Methyl-9-(1-methyl-pyrazol-4-yl)-spiro[benzo[f]pyrrolo[1,2-a][1,4]diazepine-6,1′-cyclopropan]-4(5H)-one], the melting point is 75 to 83 °C. This compound had an EC50 in data set [1] of 100 to 1000 nM.

In turn, `CN1C(=O)c2cccn2-c2cc(-c3ncccc3F)ccc2C12CC2` [Example 66, 5-Methyl-9-(3-fluoropyridin-2-yl)-spiro[benzo[f]pyrrolo[1,2-a][1,4]diazepine-6,1′-cyclopropan]-4(5H)-one] registered a melting point of 102 to 118 °C. In data set [1], this compound displayed a 50% effective concentration (EC50) of more than 1000 nM.

The compound `[2H]C([2H])([2H])N1C(=O)c2cc(-c3nnco3)cn2-c2cc(-c3ccc(F)nc3)ccc2C12CC2` [Example 188] yielded a melting point of more than 250 °C. For the same compound, the EC50 in data set [1] is less than 100 nM.

For the compound `CN1C(=O)c2cc(-c3ccccc3)cn2-c2cc(-c3ccc(F)cn3)ccc2C12CC2` [Example 110, 5-Methyl-2-phenyl-9-(5-fluoro-pyridin-2-yl)-spiro[benzo[f]pyrrolo[1,2-a][1,4]diazepine-6,1′-cyclopropan]-4(5H)-one], the melting point lay in the range of 140 to 151 °C. In addition, the EC50 in data set [1] was less than 100 nM.

As to `CN1C(=O)c2cccn2-c2cc(-c3ccnc(F)c3)ccc2C12CC2` [Example 34, 5-Methyl-9-(2-fluoropyridin-4-yl)-spiro[benzo[f]pyrrolo[1,2-a][1,4]diazepine-6,1′-cyclopropan]-4(5H)-one], the melting point fell in the range of 197 to 201 °C. For the same compound, the concentration for a half-maximal effect (EC50) in data set [1] lay in the range of 100 to 1000 nM.

With `[2H]C([2H])([2H])N1C(=O)c2cccn2-c2cc(-c3ccc(F)nc3)ccc2C12CC2` [Example 55, 5-(Methyl-d3)-9-(6-fluoropyridin-3-yl)-spiro[benzo[f]pyrrolo[1,2-a][1,4]diazepine-6,1′-cyclopropan]-4(5H)-one], the melting point fell in the range of 166 to 178 °C. This compound came in with an EC50 in data set [1] of less than 100 nM.

The compound `CN1C(=O)c2cccn2-c2cc(-c3c[nH]nc3C(F)(F)F)ccc2C12CC2` [Example 28, 5-Methyl-9-(3-trifluoromethyl-1H-pyrazol-4-yl)-spiro[benzo[f]pyrrolo[1,2-a][1,4]diazepine-6,1′-cyclopropan]-4(5H)-one] returned a melting point of more than 250 °C. Besides, the EC50 in data set [1] was more than 1000 nM.

The compound `COCN1C(=O)c2cccn2-c2cc(-c3cccnc3C)ccc2C12CC2` [Example 21, 5-Methoxymethyl-9-(2-methyl-pyridin-3-yl)-spiro[benzo[f]pyrrolo[1,2-a][1,4]diazepine-6,1′-cyclopropan]-4(5H)-one] showed a melting point of 138 to 142 °C. The compound also came in with a concentration for a half-maximal effect (EC50) in data set [1] of more than 1000 nM.

The values above are taken from patent US11008323B2, “Substituted tricyclic 1,4-benzodiazepinone derivatives as allosteric modulators of group II metabotropic glutamate receptors” (Domain Therapeutics, priority 2015, dated 2021).
